One series has as its system skin. The note with it: topical/therapeutic application; cited from earlier work.
The nature of series [1]: Degradation of 2-deoxy-D-ribose (hydroxyl radical formation). As to conditions: Table I (Addendum); controls: <0.1; 75 μM compound per method. The method, then:
This assay followed generally the procedures of Gutteridge, J. M. C., "Reactivity of Hydroxyl and Hydroxyl-Like Radicals Discriminated by Release of Thiobarbituric Acid-Reactive Material from Deoxy Sugars, Nucleosides and Benzoate", Biochem. J., 224, 761-767 (1984) and of Laughton, M. J. et al., "Antioxidant and Prooxidant Actions of the Plant Phenolics Quercetin, Gossypol and Myricetin", Biochem. Pharmacol., 38, 2859-2865 (1989). The following reagents were added to glass tubes in the order and at the final concentrations stated. 0.3 ml KH2 PO4 -KOH buffer, pH 7.4 (30 mM), 0.2 ml H2 O bidist., 0.2 ml 2-deoxy-D-ribose (2 mM), 0.2 ml FeCl3 .cndot.6 H2 O (0.1 mM), 0.1 ml anthracenone derivative (75 μM). Stock solutions of the compounds were made up fresh before use. Appropriate blanks and controls with the vehicle (acetonitrile) were conducted. The final reaction volumes were standardized to 1.0 ml. The reaction mixtures were incubated for 2 h at 37° C. in a shaking water bath. 1.0 ml of 2.8% (w/v) trichloroacetic acid and 1.0 ml of 1% (w/v in 0.05 N NaOH) 2-thiobarbituric acid (TBA) were added, and the samples were heated at 100° C. for 15 min and then cooled in an ice bath (5 min). Then 2.0 ml of the reaction mixtures were treated with 0.05 ml of 36% (w/v) HCl and 2.0 ml of 1-butanol and the mixtures were vigorously shaken in a vortex mixer (Heidolph) for 15 s. The organic layer was separated by centrifugation at 3000 rpm (15 min) and the absorbance at 532 nm was measured against butanol. […]
The biological assay methods were as follows: LDH release as described in Muller K, Huang H-S, Wiegrebe W, J. Med. Chem. 39, 3132-3138 (1996); bovine PMNL 5-LO assay as described in Muller K, Gurster D, Piwek S, Wiegrebe W, J. Med. Chem. 36, 4099-4107 (1993); and degradation of 2-deoxy-D-ribose as described in Muller K, Gurster D, Biochem. Pharmacol. 46, 1695-1704 (1993). […] Extracellular LDH activity was measured using the UV method with pyruvate and NADH and is expressly in mU/ml. […]

Structures are written as SMILES.

Here are results for one compound from patent US5952390A, “10-substituted 1,8-dihydroxy-9(10H) anthracenone pharmaceuticals” (Teva Pharmaceutical Industries Ltd., priority 1998, dated 1999).

`CCCC(=O)C1c2cccc(O)c2C(=O)c2c(O)cccc21` [Butantrone, 10-Butyryl-Dithranol]: in the series on skin, the “irritation, in words” value was “commonly elicits a widespread and delayed irritation effect”. Besides, in series [1], the deoxyribose degradation amounted to 0.24 ± 0.03 μmol MDA/mmol.
